From patent publication US20170008927A1, “ARTIFICIAL CATALYST SYSTEM SUBSTITUTABLE FOR IN VIVO ACYLATION FUNCTION” (The University of Tokyo, priority 2014, published 2017)

What was measured:
Assay type in all cases: cell-based, human
[1] = test system: MCF7 cells; test: Intracellular localization of FITC compounds, fluorescence microscope, MCF7 cells
Method: After compounds having FITC were added to the cells adhering on a glass coverslip, the cells were cultured, washed with PBS, fixed with 3.7% formaldehyde for 10 minutes, and washed with PBS twice.

[2] = test system: Hela cells; test: Protein acetylation levels in treated HeLa cells (chromosome and cytoplasm fractions), western blotting; settings: FIG. 6 comparison
Method: (§1) Hela cells and MCF7 cells were cultured using Dulbecco's modified Eagle's Medium (DMEM) media supplemented with 10% fetal bovine serum, 100 U/ml of penicillin, and 100 U/ml of streptomycin. The cells were cultured at 37° C. in the presence of 5% CO2.
(§2) The cell fractionation was carried out as follows. Approximately 10^6 cells were detached from a culture dish by a trypsin treatment. After washed with PBS, the cell pellets were suspended in a cooled, cell lysis buffer [50 mM Tris (pH=7.5), 300 mM NaCl, 0.3% Triton X-100, protease inhibitor cocktail, and 1 mM PMSF], and placed on ice for 30 minutes. After the centrifugation (4° C., 1500 rpm, 2 minutes), the supernatant was collected as a cytoplasm fraction. Meanwhile, the pellets were suspended in a cell lysis buffer containing 2 mM MgCl2 and Benzonase (Novagen, 71206), and placed on ice for 30 minutes. Then, 4 mM EDTA was added thereto to stop the reaction. After the centrifugation (4° C., 15000 rpm, 15 minutes), the supernatant was collected as a chromosome fraction.
(§3) Proteins were separated on a 4-20% SDS-PAGE gel, and transferred to a PVDF membrane, followed by blocking with 5% skim milk suspended in TBST for the reaction between the PVDF membrane and primary antibodies. The primary antibodies used were as follows. Anti-Histone H3 (acetyl K122) antibody (ab33309, Abcam), Acetylated-Lysine antibody (#9441, Cell Signaling), Anti-Histone H3 (acetyl K56) antibody (ab76307, Abcam), Anti-acetyl Histone H3 (Lys115) (#07-934, Millipore), Anti-P53 (DO-1) (sc-126, Santa cruz), Anti-Histone H3 (acetyl K9) antibody (ab4441, Abcam), Anti-Histone H3 (acetyl K14) antibody (ab52946, Abcam), Anti-Acetyl-Histone H4 (Ac-Lys16) (H9164, Sigma), Anti-Acetyl-Histone H4 (Ac-Lys5) (SAB4500307, Sigma), anti-acetyl tubulin (T6793, Sigma), Anti-p21/WAF1/Cip1 Antibody (05-655, Millipore), Anti-p27 (Kip1) (04-240, Millipore). […]

[3] = test system: MCF7 cells; test: Protein acetylation levels in treated MCF7 cells (chromosome and cytoplasm fractions), western blotting; settings: FIG. 6 comparison
Method: as §1, §2, §3

[4] = test system: hTERT RPE-1 cells; test: Protein acetylation levels in treated hTERT RPE-1 normal cells, western blotting; settings: FIG. 6 comparison
Method: as §2
Proteins were separated on a 4-20% SDS-PAGE gel, and transferred to a PVDF membrane, followed by blocking with 5% skim milk suspended in TBST for the reaction between the PVDF membrane and primary antibodies. The primary antibodies used were as follows. Anti-Histone H3 (acetyl K122) antibody (ab33309, Abcam), Acetylated-Lysine antibody (#9441, Cell Signaling), Anti-Histone H3 (acetyl K56) antibody (ab76307, Abcam), Anti-acetyl Histone H3 (Lys115) (#07-934, Millipore), Anti-P53 (DO-1) (sc-126, Santa cruz), Anti-Histone H3 (acetyl K9) antibody (ab4441, Abcam), Anti-Histone H3 (acetyl K14) antibody (ab52946, Abcam), Anti-Acetyl-Histone H4 (Ac-Lys16) (H9164, Sigma), Anti-Acetyl-Histone H4 (Ac-Lys5) (SAB4500307, Sigma), anti-acetyl tubulin (T6793, Sigma), Anti-p21/WAF1/Cip1 Antibody (05-655, Millipore), Anti-p27 (Kip1) (04-240, Millipore). After washing with TBST, the PVDF membrane was treated with a chemilluminescent detection reagent Luminata Forte Western HRP Substrate (Millipore), and the detection was performed using ImageQuant LAS 4000 (GE healthcare life sciences).
MCF7 cells, HeLa cells, and hTERT RPE-1 (hereinafter, RPE-1) cells which are normal cells were treated with an HDAC inhibitor (SAHA). […] On the other hand, there was no change in the acetylation of K56 present in the H3 globular region (FIG. 6).

SMILES | intracellular localization (FITC signal) [1] | acetylation of K56, H3 globular region [2] | acetylations of lysines in the tail regions of histones H3 and H4 [2] | tubulin acetylation in the cytoplasm [2] | acetylation of K56, H3 globular region [3] | acetylations of lysines in the tail regions of histones H3 and H4 [3] | tubulin acetylation in the cytoplasm [3] | acetylation of K56, H3 globular region [4] | acetylations of lysines in the tail regions of histones H3 and H4 [4] | tubulin acetylation in the cytoplasm [4]
CC(=O)N(OCc1cn(CCOCCOCCOc2cc(C(=O)NCC(=O)N[C@@H](CCCNC(=N)N)C(=O)NC(CCCNC(=N)N)C(=O)N[C@@H](CCCNC(=N)N)C(=O)NC(CCCNC(=N)N)C(=O)N[C@@H](CCCNC(=N)N)C(=O)NC(CCCNC(=N)N)C(=O)N[C@@H](CCCNC(=N)N)C(=O)NC(CCCNC(=N)N)C(N)=O)cc(OCCOCCOCCn3cc(CON(C(C)=O)C(C)=O)nn3)c2OCCOCCOCCn2cc(CON(C(C)=O)C(C)=O)nn2)nn1)C(C)=O (stereo partly shown) [Compound 3NMD-8R] | successfully localized in the nucleus and the chromosomes | – | – | – | – | – | – | – | – | –
O=C(CCCCCCC(=O)Nc1ccccc1)NO [SAHA] | – | no change | significantly enhanced | significantly enhanced | no change | significantly enhanced | significantly enhanced | no change | significantly enhanced | significantly enhanced
